The text below walks through data of paper PMC10544575, “Inhibitory mechanism of vortioxetine on CYP450 enzymes in human and rat liver microsomes” (Frontiers in Pharmacology, 2023).

Like-named read-outs stand apart in the source and are kept apart here.

One series deals with CYP2C-1. In words: Reversible inhibition kinetics (Lineweaver-Burk), CYP2C-1 in RLMs. Format: in vitro ADME, rat. On the procedure:
(§1) The components of the incubation system were as follows: 0.20 mg/mL HLMs or 0.20 mg/mL RLMs, 0.1 M Tris-HCl, vortioxetine, and the probe substrates of each enzyme. In the study of Km’s (Michaelis–Menten constant) experiment, midazolam (1, 2, 5, 10, 20, 50 and 100 μM in HLMs and RLMs) corresponded to CYP3A4/3A; bupropion (10, 20, 50, 100, 200, 500, 1,000 and 2000 μM in HLMs; 1, 2, 5, 10, 20, 50, 100 and 200 μM in RLMs) corresponded to CYP2B6/2B; amodiaquine (5, 10, 20, 50, 100 and 200 μM in HLMs; 10, 20, 50, 100, 200, 500 μM in RLMs) corresponded to CYP2C8/CYP2C-1; losartan (1, 2, 5, 10, 20, 50, 100, 200 μM in HLMs; 10, 20, 50, 100, 200, 500 and 1,000 μM in RLMs) corresponded to CYP2C9/CYP2C-2; mephenytoin (20, 50, 100, 200, 500 and 1,000 μM in HLMs; 5, 10, 20, 50, 100, 200, 500 and 1,000 μM in RLMs) corresponded to CYP2C19/CYP2C-3; and dextromethorphan (1, 2, 5, 10, 20, 50 and 100 μM in HLMs and RLMs) corresponded to CYP2D6/CYP2D. After 5.0 min of preincubation in the shaking water bath, the reaction was started with the addition of 1.0 mM NADPH. The incubated temperature at 37°C for 30 min. After the incubation, the enzyme reaction was stopped by cooling at −80°C, and 200 μL of acetonitrile and 20 μL of internal standard diazepam (200 ng/mL) were added for protein precipitation. The solution was fully vortexed and centrifuged at 13,000 × rpm for 10 min, and the supernatant was collected for data analysis by UPLC-MS/MS.
The inhibitory mechanism of the inhibitor on the enzyme was generally used by different concentrations of the inhibitor against different concentrations of the probe substrate. The concentrations of the inhibitor and the concentrations of probe substrates in the experiment were estimated based on IC50 and Km values, respectively.
In RLMs, the concentrations of the substrates midazolam and dextromethorphan were 0.8, 1.6, 3.5, 7 μM and 5, 10, 20, 40 μM, respectively, vortioxetine concentrations were 4, 8, 16, 32 μM. The concentrations of mephenytoin and amodiaquine were 100, 200, 400, 800 μM and 5, 10, 20, 40 μM, respectively, vortioxetine concentrations were 5, 10, 20, 40 μM. The losartan concentrations were 4, 8, 15, 30 μM, corresponding to vortioxetine concentrations of 0.08, 0.15, 0.3, 0.6 μM. […]
(§2) All experiments results were detected by UPLC-MS/MS, which equipped with a Waters Acquity UPLC system (Milford, MA, United States) and a Waters Xevo TQ-S triple quadrupole tandem mass spectrometer with an electrospray ionization source (Milford, MA, United States). […]
(§3) IC50 values and enzyme kinetic parameters were calculated by Graphpad Prism 6.0 (GraphPad software Inc., CA, United States). […] Data for each experiment were expressed as mean ± SD (n = 3).

In a further series the target is T1, CYP2C8 (Homo sapiens, UniProt P10632).
T1 sequence (P10632 1-490): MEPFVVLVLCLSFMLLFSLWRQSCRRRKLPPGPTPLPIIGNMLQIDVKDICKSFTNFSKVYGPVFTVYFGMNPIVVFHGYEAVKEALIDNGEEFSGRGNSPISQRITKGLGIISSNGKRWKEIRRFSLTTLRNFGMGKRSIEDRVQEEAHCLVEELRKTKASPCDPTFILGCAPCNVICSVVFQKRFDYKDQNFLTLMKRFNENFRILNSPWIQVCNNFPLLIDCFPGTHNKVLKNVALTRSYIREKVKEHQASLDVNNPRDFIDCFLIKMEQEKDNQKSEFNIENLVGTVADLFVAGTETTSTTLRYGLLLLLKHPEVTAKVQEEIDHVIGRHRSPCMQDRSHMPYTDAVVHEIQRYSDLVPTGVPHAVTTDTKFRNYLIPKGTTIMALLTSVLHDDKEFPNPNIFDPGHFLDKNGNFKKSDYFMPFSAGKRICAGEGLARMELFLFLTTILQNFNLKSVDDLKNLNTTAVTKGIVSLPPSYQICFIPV
In words: IC50 of vortioxetine on CYP2C8 (amodiaquine) in HLMs. More on the design: 0.20 mg/mL HLMs; from tissue; host or cells: human liver microsomes. Format: in vitro ADME. The protocol: as §1, with “After 5.0 min of preincubation in the shaking water bath, the reaction was started with the addition of 1.0 mM NADPH. The incubated temperature at 37°C for 30 min. After the incubation, the enzyme reaction was stopped by cooling at −80°C, and 200 μL of acetonitrile and 20 μL of internal standard diazepam (200 ng/mL) were added for protein precipitation. The solution was fully vortexed and centrifuged at 13,000 × rpm for 10 min, and the supernatant was collected for data analysis by UPLC-MS/MS.” left out
as §2, §3

For a further series, the target named is CYP3A4 (Homo sapiens, UniProt P08684). In words: IC50-shift experiment, CYP3A4 in HLMs. It is filed as in vitro ADME. Conditions: for IC50: midazolam 4 μM. More on the design: 0.20 mg/mL HLMs or 0.20 mg/mL RLMs; from tissue; host or cells: human liver microsomes. On the procedure:
as §1, with “The solution was fully vortexed and centrifuged at 13,000 × rpm for 10 min, and the supernatant was collected for data analysis by UPLC-MS/MS.” left out
IC50-shift was used to investigate whether the drug produced time-dependent inhibition (TDI) of the enzyme. […] During the experiment, the individual substrates midazolam (4 μM), bupropion (40 μM), amodiaquine (3 μM), losartan (8 μM), mephenytoin (90 μM), and dextromethorphan (10 μM) were determined with vortioxetine IC50-shift in HLMs. […]
as §2, §3

CYP3A4, sequence (P08684 whole entry): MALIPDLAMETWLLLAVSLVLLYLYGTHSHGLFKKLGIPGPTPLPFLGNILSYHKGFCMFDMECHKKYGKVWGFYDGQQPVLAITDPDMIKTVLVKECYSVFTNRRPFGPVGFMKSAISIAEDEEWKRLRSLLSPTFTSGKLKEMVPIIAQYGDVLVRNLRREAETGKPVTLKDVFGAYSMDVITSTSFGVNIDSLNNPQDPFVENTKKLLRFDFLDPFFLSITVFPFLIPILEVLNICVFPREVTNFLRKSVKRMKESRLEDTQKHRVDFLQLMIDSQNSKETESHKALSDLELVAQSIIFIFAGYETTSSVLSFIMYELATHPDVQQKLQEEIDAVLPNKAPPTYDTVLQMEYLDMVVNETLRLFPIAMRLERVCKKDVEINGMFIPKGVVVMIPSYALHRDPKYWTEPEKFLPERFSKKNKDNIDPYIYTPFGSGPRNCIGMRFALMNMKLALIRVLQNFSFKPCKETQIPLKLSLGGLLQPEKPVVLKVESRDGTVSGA

`Cc1ccc(Sc2ccccc2N2CCNCC2)c(C)c1` [vortioxetine] gave a α in the series on CYP2C-1 (amodiaquine) of 1.42. For the same compound, the Inhibition type result with CYP2C-1 (amodiaquine, Lineweaver-Burk plot) is reported as “mixed inhibition”. This compound showed a αKi in the series with CYP2C-1 (amodiaquine, secondary plot of y-intercepts) of 56.73 µM. Besides, the Ki (usually a measure of affinity in units of concentration, obtained from inhibition or displacement) at 30 min in the series with CYP2C-1 (rat, rat liver microsomes, probe amodiaquine) was found to be 39.9 µM. The IC50 (usually the point on the concentration scale where inhibition reaches its midpoint) at CYP2C8 (HLMs 0.20 mg/mL, amodiaquine at Km, 37°C, 30 min, read-out: IC50) was 15 µM; at CYP2C8 (inhibitory effect (strength judged by IC50), HLMs) it was more than 10 µM; at CYP3A4 (30 min preincubation with 1.0 mM NADPH) it was 13.7 µM; on CYP3A4 (30 min preincubation without NADPH), 15.5 µM. Further, at CYP3A4 (human, human liver microsomes, probe midazolam (4 μM), ratio IC50 (−) NADPH to IC50 (+) NADPH, read-out: IC50 fold shift), the IC50 shift at 30 min was 1.14.
